Laboratory results published in patent publication US8999942B2, “Polyol modified aminoglycoside-lipid conjugates” (University of Manitoba, priority 2010, dated 2015).

How the values were obtained:
[1] = system: S. epidermidis ATCC 14990; assay: MIC, broth macrodilution (CLSI), S. epidermidis; format: cell-based, Staphylococcus epidermidis; details: footnote ATCC 1490
Description: (§1) All compounds were tested against American Type Culture Collection (ATCC) reference strains as well as clinical isolates from the Canadian Intensive Care Unit (CAN-ICU) study (Zhanel, et al., 2008). […] Antibacterial activity against Gram-positive and Gram-negative microorganisms was performed via broth macrodilution tests using CLSI methodology (Clinical and Laboratory Standards Institute, 2006). The minimum inhibitory concentration (MIC) in μg/mL of the aminoglycoside-derived amphiphilic polycarbamates and polyethers were determined using established methods (Clinical and Laboratory Standards Institute, 2006) and are shown in Tables 1 and 2, respectively.

[2] = system: E. coli (Amikacin MIC 32) CAN-ICU 63074; assay: MIC, broth macrodilution (CLSI), E. coli CAN-ICU 63074; format: cell-based
Description: as §1

[3] = system: Streptococcus pneumoniae ATCC 49619; assay: MIC, broth macrodilution (CLSI), S. pneumoniae ATCC 49619; format: cell-based
Description: as §1

S. pneumoniae ATCC 13883 = assay: MIC, broth macrodilution (CLSI), S. pneumoniae ATCC 13883; format: cell-based
Description: as §1

[4] = system: methicillin-resistant Staphylococcus epidermidis (MRSE) CAN-ICU 61589; assay: MIC, broth macrodilution (CLSI), MRSE; format: cell-based; details: methicillin-resistant S. epidermidis, footnote (ATCC 14990)
Description: as §1

[5] = system: P. aeruginosa (Gent-R) CAN-ICU 62308; assay: MIC, broth macrodilution (CLSI), P. aeruginosa CAN-ICU 62308; format: cell-based, Pseudomonas aeruginosa
Description: as §1

[6] = system: E. coli (Gentamicin-resistant) CAN-ICU 61714; assay: MIC, broth macrodilution (CLSI), gentamicin-resistant E. coli; format: cell-based; details: footnote ATCC 6174 (gentamicin resistant)
Description: as §1

[7] = system: methicillin-resistant Staphylococcus aureus (MRSA) ATCC 33592; assay: MIC, broth macrodilution (CLSI), MRSA ATCC 33592; format: cell-based; details: MRSA, methicillin-resistant S. aureus ATCC 33592
Description: as §1

[8] = system: Acinetobacter baumanni (CAN-ICU 63169); assay: MIC, broth macrodilution (CLSI), A. baumannii; format: cell-based; details: A. baumannii CAN-ICU 63169
Description: as §1

[9] = system: Pseudomonas aeruginosa ATCC 27853; assay: MIC, broth macrodilution (CLSI), P. aeruginosa ATCC 27853; format: cell-based
Description: as §1

S. aureus ATCC 29213 = assay: MIC, broth macrodilution (CLSI), S. aureus ATCC 29213; format: cell-based, Staphylococcus aureus
Description: as §1

E. coli ATCC 25922 = assay: MIC, broth macrodilution (CLSI), E. coli ATCC 25922; format: cell-based
Description: as §1

[10] = system: Stenotrophomonas maltophilia (CAN-ICU 62585); assay: MIC, broth macrodilution (CLSI), S. maltophilia; format: cell-based; details: S. maltophilia, footnote CAN-ICU 62584
Description: as §1

| Structure (SMILES) | Minimal Inhibitory Concentration (MIC) [1] [µg/mL] | Minimal Inhibitory Concentration (MIC) [2] [µg/mL] | Minimal Inhibitory Concentration (MIC) [3] [µg/mL] | Minimal Inhibitory Concentration (MIC) (S. pneumoniae ATCC 13883) [µg/mL] | Minimal Inhibitory Concentration (MIC) [4] [µg/mL] | Minimal Inhibitory Concentration (MIC) [5] [µg/mL] | Minimal Inhibitory Concentration (MIC) [6] [µg/mL] | Minimal Inhibitory Concentration (MIC) [7] [µg/mL] | Minimal Inhibitory Concentration (MIC) [8] [µg/mL] | Minimal Inhibitory Concentration (MIC) [9] [µg/mL] | Minimal Inhibitory Concentration (MIC) (S. aureus ATCC 29213) [µg/mL] | Minimal Inhibitory Concentration (MIC) (E. coli ATCC 25922) [µg/mL] | Minimal Inhibitory Concentration (MIC) [10] [µg/mL] |
| --- | --- | --- | --- | --- | --- | --- | --- | --- | --- | --- | --- | --- | --- |
| NCC1OC(OC2C(N)CC(N)C(OCc3ccc(Cl)cc3)C2OC2OC(COCc3ccc(Cl)cc3)C(OC3OC(CN)C(OCc4ccc(Cl)cc4)C(OCc4ccc(Cl)cc4)C3N)C2OCc2ccc(Cl)cc2)C(N)C(OCc2ccc(Cl)cc2)C1OCc1ccc(Cl)cc1.O=C(O)C(F)(F)F.O=C(O)C(F)(F)F.O=C(O)C(F)(F)F.O=C(O)C(F)(F)F.O=C(O)C(F)(F)F.O=C(O)C(F)(F)F (centres unmarked) [Compound 12] | 32 | 64 | 128 | 128 | 64 | >128 | >128 | 64 | >128 | >128 | 64 | 128 | >128 |
| CN(C)c1ccc(NC(=O)OCC2OC(OC3C(OC(=O)Nc4ccc(N(C)C)cc4)C(N)CC(N)C3OC3OC(CN)C(OC(=O)Nc4ccc(N(C)C)cc4)C(OC(=O)Nc4ccc(N(C)C)cc4)C3N)C(OC(=O)Nc3ccc(N(C)C)cc3)C2OC2OC(CN)C(OC(=O)Nc3ccc(N(C)C)cc3)C(OC(=O)Nc3ccc(N(C)C)cc3)C2N)cc1.O=C(O)C(F)(F)F.O=C(O)C(F)(F)F.O=C(O)C(F)(F)F.O=C(O)C(F)(F)F.O=C(O)C(F)(F)F.O=C(O)C(F)(F)F.O=C(O)C(F)(F)F.O=C(O)C(F)(F)F.O=C(O)C(F)(F)F.O=C(O)C(F)(F)F.O=C(O)C(F)(F)F.O=C(O)C(F)(F)F.O=C(O)C(F)(F)F (centres unmarked) [Compound 4] | 8 | 64 | 32 | >256 | 8 | 128 | 128 | 16 | >256 | 128 | 16 | 128 | 256 |
| CCCCCCNC(=O)OCC1OC(OC2C(N)CC(N)C(OC3OC(CN)C(OC(=O)NCCCCCC)C(OC(=O)NCCCCCC)C3OC(=O)NCCCCCC)C2OC(=O)NCCCCCC)C(OC(=O)NCCCCCC)C(N)C1OC(=O)NCCCCCC.O=C(O)C(F)(F)F.O=C(O)C(F)(F)F.O=C(O)C(F)(F)F.O=C(O)C(F)(F)F (centres unmarked) [Compound 6] | 16 | 64 | 128 | >256 | 32 | 32 | 64 | 64 | >256 | 128 | 32 | 128 | >256 |
| NCC1OC(OC2C(N)CC(N)C(OC3OC(COCc4ccccc4)C(OCc4ccccc4)C(N)C3OCc3ccccc3)C2OCc2ccccc2)C(OCc2ccccc2)C(OCc2ccccc2)C1OCc1ccccc1.O=C(O)C(F)(F)F.O=C(O)C(F)(F)F.O=C(O)C(F)(F)F.O=C(O)C(F)(F)F (centres unmarked) [Compound 15] | 4 | 16 | 32 | >64 | 8 | >64 | 32 | 8 | >64 | >64 | 8 | 32 | >64 |
| CC(C)(C)c1ccc(COCC2OC(OC3C(OCc4ccc(C(C)(C)C)cc4)C(N)CC(N)C3OC3OC(CN)C(OCc4ccc(C(C)(C)C)cc4)C(OCc4ccc(C(C)(C)C)cc4)C3N)C(OCc3ccc(C(C)(C)C)cc3)C2OC2OC(CN)C(OCc3ccc(C(C)(C)C)cc3)C(OCc3ccc(C(C)(C)C)cc3)C2N)cc1.O=C(O)C(F)(F)F.O=C(O)C(F)(F)F.O=C(O)C(F)(F)F.O=C(O)C(F)(F)F.O=C(O)C(F)(F)F.O=C(O)C(F)(F)F (centres unmarked) [Compound 13] | 64 | 128 | 256 | >128 | 64 | 128 | 128 | 128 | >128 | 256 | 128 | 128 | >128 |
| CCCCCCNC(=O)OCC1OC(OC2C(OC(=O)NCCCCCC)C(N)CC(N)C2OC2OC(CN)C(OC(=O)NCCCCCC)C(OC(=O)NCCCCCC)C2N)C(OC(=O)NCCCCCC)C1OC1OC(CN)C(OC(=O)NCCCCCC)C(OC(=O)NCCCCCC)C1N.O=C(O)C(F)(F)F.O=C(O)C(F)(F)F.O=C(O)C(F)(F)F.O=C(O)C(F)(F)F.O=C(O)C(F)(F)F.O=C(O)C(F)(F)F (centres unmarked) [Compound 3] | 1 | 32 | 8 | 4 | 2 | 256 | 8 | 256 | >256 | >256 | 2 | 8 | >256 |
| NCC1OC(OC2C(N)CC(N)C(OC3OC(COC(=O)Nc4ccccc4)C(OC(=O)Nc4ccccc4)C(N)C3OC(=O)Nc3ccccc3)C2OC(=O)Nc2ccccc2)C(OC(=O)Nc2ccccc2)C(OC(=O)Nc2ccccc2)C1OC(=O)Nc1ccccc1.O=C(O)C(F)(F)F.O=C(O)C(F)(F)F.O=C(O)C(F)(F)F.O=C(O)C(F)(F)F (centres unmarked) [Compound 5] | 4 | >256 | 64 | >256 | 8 | >256 | >256 | 32 | >256 | >256 | 32 | >256 | >256 |
| NC[C@H]1O[C@H](O[C@H]2[C@H](O)[C@@H](O[C@H]3O[C@H](CO)[C@@H](O)[C@H](N)[C@H]3O)[C@H](N)C[C@@H]2N)[C@H](O)[C@@H](O)[C@@H]1O [Kanamycin A, reference compound] | 2 | 32 | 8 | 1 | 128 | >512 | 16 | >512 | 32 | >512 | 4 | 8 | >512 |
